Test results published in PMC10882974 (Environmental Science & Technology, 2024).
Converted amounts (≈) assume the structure as drawn.

Columns and labels:
[1] = toxicokinetics experiment III: effect of E. coli on uptake; assay type: in vivo, Caenorhabditis elegans; details: 10 mg/L, exp III, 10 mg/L fluoxetine, 10 h, read-out: k2NF elimination rate constant of norfluoxetine (converted)
Procedure: (§1) In between cycles, the samples were kept on ice. […] Samples were stored at −20 °C until further analysis.
(§2) All parameters and units are summarized in SI A3.

C. elegans [2] = assay: as above; assay type: in vivo, Caenorhabditis elegans; details: Figure 4B-D (experiments III and IV)
Procedure: as §1, §2

C. elegans [3] = assay: calculated excretion rate of norfluoxetine from exposure medium concentrations (experiments III and IV, SI A6); assay type: in vivo, Caenorhabditis elegans
Source text: Norfluoxetine was also detected in the exposure medium for experiments III and IV and increased over time, indicating the elimination of norfluoxetine. […] However, this does allow for a calculation of the excretion rate of norfluoxetine, as shown in SI A6. […] This could be explained by the saturation of binding sites for norfluoxetine at these higher concentrations, but this still requires further investigation.

[4] = toxicokinetics experiment IV: long-term exposure of L4 and adult worms; details: whole organism (worm homogenate), iv, 20 mg/L, k2NF elimination rate constant of norfluoxetine, exp IV, with E. coli, 20 mg/L fluoxetine, 48 h
Procedure: (§3) Three replicates of 1500 pooled C. elegans were used for each time point for each concentration. For experiments with E. coli, the OD600 was kept constant at 0.4.
(§4) C. elegans containing pellets were resuspended in 500 μL of methanol, and 0.6 g of […] ceramic beads (1.4 mm) were added to the vial. The samples were homogenized three times for 20 s using a Minilys homogenizer (Bertin Technologies) at middle speed. In between cycles, the samples were kept on ice. […] The supernatant was transferred to a glass tube, the pellet (including the ceramic beads) was resuspended in 500 μL of methanol, and the homogenization, sonication, and centrifugation cycle was repeated twice more to result in a three-step extraction. The total combined supernatant was concentrated to dryness under a gentle nitrogen stream and redissolved in 500 μL of methanol to a final concentration of the IS of 1 μM. Samples were stored at −20 °C until further analysis.
(§5) A one-compartment model was selected since chemical concentrations could only be measured for the whole organism. […] All parameters and units are summarized in SI A3.
(§6) The kinetic bioconcentration factor[33] was calculated with eq 3, and the ke and kt were only included when applicable to the respective experiment [drawing 4] 3
(§7) Model fitting was performed by adding the ordinary differential equations to the BYOM modeling package version 6.3 (http://www.debtox.info/byom.html) in Matlab R2022b.[34] […] Optimization was performed with the Melder–Mead Simplex Search method, minimizing the minus log-likelihood. […] Model script deviations from the BYOM model can be found in SI A9.

C. elegans [5] = assay: as above; details: 20 mg/L fluoxetine
Procedure: as §3, §4, §5, §6, §7

E. coli OP50 = assay: uptake and metabolism of fluoxetine in E. coli OP50 and medium; design: species or system Escherichia coli; details: 10 mg/L fluoxetine, E. coli OD600 1.0
[6] = toxicokinetics experiment I: elimination after 1 h exposure; assay type: in vivo, Caenorhabditis elegans; details: whole organism (worm homogenate)
Procedure: as §1, §2

C. elegans [7] = assay: as above; assay type: in vivo, Caenorhabditis elegans; details: after 1 h exposure; no E. coli
Procedure: as §1, §2

C. elegans [8] = assay: general activity test (WMicrotracker); assay type: in vivo, Caenorhabditis elegans
Procedure: Two quadrants were spiked with 2 μL of an attractant (0.5% diacetyl), and two contained 2 μL water as a control.[30] After 45 min, during which the worms could move freely, the dish was moved to 4 °C to immobilize the worms, and the number of worms in each quadrant was counted. The general activity was measured with a WMicrotracker from Phylumtech. This system measured the collective movement in multiwell plates by detecting the number of interruptions of an infrared beam over time. The total number of interruptions over a 30 min period was calculated with the Wmicrotracker software. […] For all data points, the mean and standard deviation were plotted using Graphpad Prism 9.4. The ordinary differential equations and parameters fitted in Matlab were also entered in Graphpad Prism to simulate the internal concentrations over time.

C. elegans [9] = assay: chemotaxis assay (diacetyl attractant); assay type: in vivo, Caenorhabditis elegans
Procedure: Two quadrants were spiked with 2 μL of an attractant (0.5% diacetyl), and two contained 2 μL water as a control.[30] After 45 min, during which the worms could move freely, the dish was moved to 4 °C to immobilize the worms, and the number of worms in each quadrant was counted. For all data points, the mean and standard deviation were plotted using Graphpad Prism 9.4. The ordinary differential equations and parameters fitted in Matlab were also entered in Graphpad Prism to simulate the internal concentrations over time.

C. elegans [10] = assay: norfluoxetine uptake and coexposure with fluoxetine (SI A5); assay type: in vivo, Caenorhabditis elegans; details: same exposure concentration; SI A5, Figure S9
Procedure: Alternatively, there could be a concentration-dependent increase in metabolism over time resulting from enzyme induction. This was modeled with an extra metabolism rate constant ke that was included after 10 h (eq 1a and Figure 4C,D).

[11] = at 10 mg/L, p < 0.01 Bonferroni post hoc

## NCCC(Oc1ccc(C(F)(F)F)cc1)c1ccccc1 (stereo not drawn) [norfluoxetine]
[1]; whole organism (homogenate of pooled worms), no E. coli
  k el: 2.78e-08 s⁻¹
[1]; whole organism (worm homogenate), with E. coli, k1, k2FLX, k2NF, kt constrained (eq 1b)
  k el: 2.78e-08 s⁻¹
[1]; whole organism (worm homogenate), with E. coli, no constraint
  k el: 3.33e-05 s⁻¹
C. elegans [2]
  elimination rate (k2NF): around 0.12 /h
  transformation rate kt (norfluoxetine formation): around 0.06 1/h
C. elegans [3]; 20 mg/L of fluoxetine exposure
  calculated excretion rate of norfluoxetine: around 0.5 /h
C. elegans [3]; 20 mg/L of fluoxetine exposure, value it increased to
  calculated excretion rate of norfluoxetine, increased value: 0.83
C. elegans [3]; 0.5 and 10 mg/L of fluoxetine
  calculated excretion rate of norfluoxetine: around 0.1 /h
[4]
  k el: 3.06e-05 s⁻¹
C. elegans [5]; Figure 4D
  norfluoxetine internal concentration relative to fluoxetine at steady state: around half of the fluoxetine concentrations
C. elegans [5]; steady state after 10 h
  norfluoxetine internal concentration at steady state: approximately 80 mg/kgnem
E. coli OP50
  norfluoxetine concentrations in medium and bacteria exposed to fluoxetine: negligible
[6]; 1 h exposure (fluoxetine 0.5, 5, 20 mg/L; norfluoxetine 20 mg/L), then clean medium, no E. coli, read-out: k2sum elimination rate constant (+95% CI) (converted)
  k el: 0.000375 s⁻¹
[6]; 1 h exposure, then clean medium, slow phase after 1 h, no E. coli, read-out: k2slow elimination rate constant (+95% CI) (converted)
  k el: 2.36e-05 s⁻¹
[6]; calculated from k2sum and k2slow, read-out: k2fast elimination rate constant (converted)
  k el: 0.000351 s⁻¹
C. elegans [7]
  elimination over time after transfer to clean medium: still present in small amounts after 24 h
C. elegans [8]; [11]
  activity compared to fluoxetine: significantly lower
C. elegans [8]; nominal concentrations, S medium with E. coli OD600 0.4, 24 h exposure, read-out: EC50 for the effect on activity (+95% confidence intervals)
  EC50: 10.1 µg/mL (≈ 34.2 µM)
C. elegans [9]; [11]
  chemotaxis index compared to fluoxetine: significantly lower
C. elegans [9]; nominal concentrations, 72 h exposure from L1, S medium with E. coli OD600 0.4, read-out: EC50 for chemotaxis (+95% confidence intervals)
  EC50: 14.2 µg/mL (≈ 48.2 µM)
C. elegans [10]
  internal concentrations of norfluoxetine compared to fluoxetine: around 70%
